Here are results for one sequence from article PMC12677653, “Inhibition of Tumor Lipogenesis and Growth by Peptide‐Based Targeting of SREBP Activation” (Advanced Science, 2025).

The subject of experiment [1] is Insig1 S207/Insig2 S151 phosphorylation. Description: Immunoblot of Insig1 S207/Insig2 S151 phosphorylation, Hep3B. To be noted: Hep3B cells, peptide 7.5 or 15 μM 1 h before IGF1 100 ng/mL. The format is cell-based, human. The protocol: (§1) Cellular proteins were extracted using ice‐cold lysis buffer [50 mM Tris‐HCl (pH 7.5), 150 mM NaCl, 0.1% SDS, 1% Triton X‐100, 1 mM DTT, 0.5 mM EDTA] supplemented with protease inhibitor cocktail (Roche) and phosphatase inhibitors (Bimake). Following lysis, cell extracts were centrifuged at 13400 × g for 15 min at 4 °C to remove cellular debris. The clarified supernatants were then incubated with primary antibodies overnight at 4 °C with gentle rotation. For Flag‐tagged protein immunoprecipitation, Flag M2 magnetic beads (Sigma) were added to the lysate‐antibody mixture and incubated for an additional 4 h at 4 °C. The immunocomplexes were washed three times with lysis buffer under stringent conditions (5 min per wash with rotation). Finally, the precipitated proteins were eluted and analyzed by immunoblotting as previously described.^[ [35] ^]
e) Hep3B cells were pretreated with low (7.5 μM) or high (15 μM) concentrations of Insig1/2 loop 1 peptide for 1 h before IGF1 (100 ng ml⁻¹) stimulation.

Experiment [2] concerns the target T1, binding of PCK1 to Insig1 (Homo sapiens, UniProt P35558).
T1 sequence (P35558 1-622): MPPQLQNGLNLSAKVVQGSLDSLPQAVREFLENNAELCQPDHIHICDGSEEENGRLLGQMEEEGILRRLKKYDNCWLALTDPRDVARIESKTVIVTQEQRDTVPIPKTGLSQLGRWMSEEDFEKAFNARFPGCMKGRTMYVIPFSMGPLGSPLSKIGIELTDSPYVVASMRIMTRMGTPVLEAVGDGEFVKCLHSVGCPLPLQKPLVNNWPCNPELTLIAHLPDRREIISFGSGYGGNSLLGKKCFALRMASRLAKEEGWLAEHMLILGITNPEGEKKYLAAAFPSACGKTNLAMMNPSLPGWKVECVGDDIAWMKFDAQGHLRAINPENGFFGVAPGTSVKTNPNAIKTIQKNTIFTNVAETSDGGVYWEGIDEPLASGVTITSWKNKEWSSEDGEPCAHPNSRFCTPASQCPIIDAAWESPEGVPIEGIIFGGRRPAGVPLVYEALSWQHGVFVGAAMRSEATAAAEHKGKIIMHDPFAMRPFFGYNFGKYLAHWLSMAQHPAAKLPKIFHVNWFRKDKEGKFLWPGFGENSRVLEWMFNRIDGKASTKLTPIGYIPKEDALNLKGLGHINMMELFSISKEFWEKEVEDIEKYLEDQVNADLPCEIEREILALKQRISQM
Description: Immunoprecipitation of IGF1-induced PCK1-Insig1 binding, Hep3B. The class given is cell-based. The arrangement: expressed in transfected cells. Conditions: Flag-PCK1-expressing Hep3B cells, peptide 15 μM 1 h before IGF1 100 ng/mL. The protocol:
as §1
d) Flag-PCK1-expressing Hep3B cells were pre-treated with Insig1/2 loop 1 peptide (15 μM) for 1 h before IGF1 (100 ng ml⁻¹) stimulation.

For the sequence “RKKRRQRRRLYPCIDSHLGEPHKFKRE [Insig1/2 loop 1 peptide]”, the “Insig1 S207/Insig2 S151 phosphorylation” value in experiment [1] is given as “markedly inhibited”. Besides, the “IGF1-induced binding of PCK1 to Insig1” value in experiment [2] is listed as “markedly inhibited”.
